Here are results for one compound from patent publication US6365626B1, “BTK inhibitors and methods for their identification and use” (Parker Hughes Institute, priority 1998, dated 2002).

In this assay the target is T1, BTK (Homo sapiens, UniProt Q06187).
T1 construct: expressed in transfected cells
Briefly: BTK inhibition assay of second generation LFM analogs. In kind it is biochemical. Particulars: Table 4.

T1 sequence (Q06187 2-659): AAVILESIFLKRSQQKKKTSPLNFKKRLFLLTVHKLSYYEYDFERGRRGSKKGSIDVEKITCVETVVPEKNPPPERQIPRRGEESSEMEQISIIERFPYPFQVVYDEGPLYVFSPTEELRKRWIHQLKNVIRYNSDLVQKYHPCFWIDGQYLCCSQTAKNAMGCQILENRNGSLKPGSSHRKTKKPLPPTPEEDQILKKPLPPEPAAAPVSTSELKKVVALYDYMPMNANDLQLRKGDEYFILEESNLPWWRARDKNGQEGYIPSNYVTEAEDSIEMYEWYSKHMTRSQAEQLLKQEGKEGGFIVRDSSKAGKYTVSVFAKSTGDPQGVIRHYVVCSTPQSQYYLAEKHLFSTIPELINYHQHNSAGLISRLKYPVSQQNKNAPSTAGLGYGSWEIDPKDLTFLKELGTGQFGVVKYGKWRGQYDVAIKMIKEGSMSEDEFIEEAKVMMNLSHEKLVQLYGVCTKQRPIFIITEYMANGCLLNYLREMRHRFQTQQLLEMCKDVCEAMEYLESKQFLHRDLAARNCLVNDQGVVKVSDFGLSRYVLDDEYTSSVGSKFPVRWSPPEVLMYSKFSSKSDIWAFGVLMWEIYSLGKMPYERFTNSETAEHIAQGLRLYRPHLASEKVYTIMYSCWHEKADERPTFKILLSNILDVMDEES

In general, IC50 refers to the concentration at which inhibition is half-maximal. As to `CC(O)=C(C#N)C(=O)Nc1ccc(Cl)cc1Cl` [LFM-A20, α-Cyano-β-hydroxy-β-methyl-N-(2,4-dichlorophenyl)propenamide], half-maximal inhibition (IC50) was put at 37 µM.
